In paper PMC11058299, “Synthesis, molecular docking evaluation for LOX and COX-2 inhibition and determination of in-vivo analgesic potentials of aurone derivatives” (Heliyon, 2024):
Where two headings read alike, the source gives them in different places.

Assays:
[1] = test system: heat induced tail flicking latency; assay: Tail immersion test; format: in vivo; details: mice
Description: Group I: Control, Group II-XV: WE-1 to WE-7 (sample compounds) at dose of 10 mg/kg and 20 mg/kg and Group XVI: Standard. The control (Group I) was given normal saline. Group II-XV received 10 mg/kg and 20 mg/kg of test sample (WE-1 to WE-7).
(§1) The cut-off time was set at 25 s, and the time taken for the mice to flick their tails out of the water was recorded at 30, 60, 90, and 120-min intervals. An increase in the time of tail immersion was compared to the control group to determine the analgesic effect of the tested drugs. The percentage of inhibition was calculated at the time interval showing the highest effect.

[2] = test system: opioid receptors (tail flicking latency); assay: Assessment of opioid mechanism via tail immersion test with Naloxone; format: in vivo; details: mice; for Latency response 30 min: control 3.14 ± 0.31; for Latency response 60 min: control 3.17 ± 0.41; for Latency response 120 min: control 3.20 ± 0.29; for Latency response 90 min: control 3.31 ± 0.44
Description: as §1
To verify the involvement of the opioid mechanism, following the approach outlined in the published study. […] These derivatives were assessed for their potential opioid activity within the control, sample compounds and standard groups using the tail immersion test.

COX-2 enzyme = target: T1, COX-2 enzyme (Homo sapiens, UniProt P35354); assay: COX-2 inhibitory assay; format: biochemical
T1 construct: purchased Sigma Aldrich
T1 sequence (P35354 18-604): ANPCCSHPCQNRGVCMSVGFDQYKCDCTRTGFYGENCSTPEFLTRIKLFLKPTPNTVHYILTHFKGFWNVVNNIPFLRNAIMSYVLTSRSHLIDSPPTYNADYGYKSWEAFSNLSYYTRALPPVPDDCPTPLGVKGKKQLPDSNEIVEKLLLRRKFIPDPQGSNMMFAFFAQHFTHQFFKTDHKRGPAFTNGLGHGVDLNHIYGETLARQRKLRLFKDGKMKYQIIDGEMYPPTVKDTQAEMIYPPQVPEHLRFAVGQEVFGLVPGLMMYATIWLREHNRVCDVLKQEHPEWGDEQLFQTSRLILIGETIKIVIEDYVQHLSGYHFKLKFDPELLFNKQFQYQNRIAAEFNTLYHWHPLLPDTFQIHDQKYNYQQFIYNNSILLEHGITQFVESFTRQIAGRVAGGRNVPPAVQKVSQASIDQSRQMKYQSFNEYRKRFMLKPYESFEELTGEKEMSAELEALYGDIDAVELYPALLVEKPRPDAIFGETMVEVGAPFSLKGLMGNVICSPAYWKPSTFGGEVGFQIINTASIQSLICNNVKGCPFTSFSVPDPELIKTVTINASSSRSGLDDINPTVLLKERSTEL
Description: COX-2 inhibition was measured spectrophotometrically at 550 nm after the formation of oxidized form of tetramethlenephenylenediamine (TMPD). This assay was conducted according to previously reported procedure. […] The reaction contained 10 μL COX-2 enzymes (100 μM in diluted in DMSO), 10 μL haem of 2.2 mM diluted in DMSO, tris buffers (pH. 8, 100 μl) and drug samples according to the above stated procedure. The reaction was started by the addition of freshly prepared TMPD and methanolic arachidonic acid (AA). Celecoxib is used as a reference drug in this assay. After 5 min of incubation at 25–28C, the absorbance was measured at 550 nm and inhibition was calculated.

5-LOX = target: T2, 5-LOX (Homo sapiens, UniProt P09917); assay: LOX inhibitory assay; format: biochemical
T2 sequence (P09917 1-674): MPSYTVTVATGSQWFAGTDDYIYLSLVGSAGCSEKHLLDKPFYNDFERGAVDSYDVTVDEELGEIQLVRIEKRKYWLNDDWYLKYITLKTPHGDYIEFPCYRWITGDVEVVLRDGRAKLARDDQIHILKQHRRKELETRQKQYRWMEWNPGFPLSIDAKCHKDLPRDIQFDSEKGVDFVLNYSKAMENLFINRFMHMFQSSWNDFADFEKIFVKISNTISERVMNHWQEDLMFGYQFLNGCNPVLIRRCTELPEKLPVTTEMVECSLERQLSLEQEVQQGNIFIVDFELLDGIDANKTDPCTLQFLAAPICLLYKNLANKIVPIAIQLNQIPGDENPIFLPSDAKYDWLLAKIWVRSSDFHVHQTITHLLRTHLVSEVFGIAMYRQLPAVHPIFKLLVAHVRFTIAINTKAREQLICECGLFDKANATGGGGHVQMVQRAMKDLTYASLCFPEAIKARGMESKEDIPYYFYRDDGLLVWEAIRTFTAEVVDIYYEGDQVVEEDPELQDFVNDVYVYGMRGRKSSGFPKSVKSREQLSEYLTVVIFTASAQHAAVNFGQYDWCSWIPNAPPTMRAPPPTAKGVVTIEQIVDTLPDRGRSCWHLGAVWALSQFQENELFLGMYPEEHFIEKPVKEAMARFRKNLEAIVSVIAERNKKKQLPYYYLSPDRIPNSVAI
Description: The assay was performed according to previously reported procedure. […] Enzyme 5-LOX and DCFDA were incubated for 5 min. After the addition of the test compound, it was further incubated for 10 min. By the addition of substrate arachadonic acid and ATP, the reaction was initiated.

[3] = test system: formalin induced paw licking; assay: Formalin induced paw licking test; format: in vivo; details: late phase, mice
Description: The animals were divided into various groups I-XVI consisting of 8 experimental animals for control, sample compounds (WE-1 to WE-7) and standard. Group I: Control, Group II-XV: WE-1 to WE-7 (sample compounds) at dose of 10 mg/kg and 20 mg/kg and Group XVI: Standard. The control (Group I) was given normal saline. Group II-XV received 10 mg/kg and 20 mg/kg of test sample (WE-1 to WE-7). […] The acute peripheral and centrally mediated analgesic activity of aurone derivatives was evaluated using the formalin-induced pain method, as described. Samples compounds (WE-1 to WE-7) and a standard (Indomethacin 10 mg) were orally administered 30 min prior to 20 μl of 1 % formalin injection (prepared in 0.9 % saline) in right hind paw of the mice and immediately placed in a clear box to observe the animal's reaction. Paw licking or biting within 0–5 min indicated Phase 1, while animal reactions observed between 15 and 30 min indicated Phase 2. The number of paw licking or biting events was compared to the control group, and the percentage of inhibition was calculated.

[4] = test system: acetic acid induced writhing; assay: Acetic acid induced writhing test; format: in vivo; details: mice
Description: The animals were divided into various groups I-XVI consisting of 8 experimental animals for control, sample compounds (WE-1 to WE-7) and standard. Group I: Control, Group II-XV: WE-1 to WE-7 (sample compounds) at dose of 10 mg/kg and 20 mg/kg and Group XVI: Standard. The control (Group I) was given normal saline. Group II-XV received 10 mg/kg and 20 mg/kg of test sample (WE-1 to WE-7). […] The writhing test, following a previously established method, was conducted to assess the analgesic potential of the aurone derivatives. The mice were orally administered samples compounds (WE-1 to WE-7)and standard (Diclofenac sodium 10 mg/kg) 1 h before intraperitoneal administration 10 ml/kg of 1 % acetic acid. Five minutes after the acetic acid administration, the numbers of writhing episodes were counted for 10 min, and the percentage of inhibition was subsequently calculated.

[5] = Table 2, read-out: LOX (IC50 μM)
[6] = as repeated in Table 4, read-out: Human LOX (IC50 μM)

Row | Structure (SMILES) | Latency response 30 min ([2]; 10 mg/kg + Naloxone 2 mg/kg) | Latency response 60 min ([2]; 10 mg/kg + Naloxone 2 mg/kg) | Latency response 120 min ([2]; 10 mg/kg + Naloxone 2 mg/kg) | Latency response 90 min ([2]; 10 mg/kg + Naloxone 2 mg/kg) | IC50 (COX-2 enzyme; Table 2) [µM] | IC50 (COX-2 enzyme; as repeated in Table 4) [µM] | IC50 (5-LOX; [5]) [µM] | IC50 (5-LOX; [6]) [µM] | percentage inhibition of paw licking, Phase II ([3]; 20 mg/kg oral) | Latency response 30 min ([2]; 20 mg/kg + Naloxone 2 mg/kg) | Latency response 60 min ([2]; 20 mg/kg + Naloxone 2 mg/kg) | Latency response 120 min ([2]; 20 mg/kg + Naloxone 2 mg/kg) | Latency response 90 min ([2]; 20 mg/kg + Naloxone 2 mg/kg) | further results
1 | CN1CC[C@]23c4c5ccc(O)c4O[C@H]2[C@@H](O)C=C[C@H]3[C@H]1C5 [Morphine, reference compound] |  |  |  |  |  |  |  |  |  |  |  |  |  | percentage inhibition of pain, tail immersion ([1]; 2 mg/kg oral): 85.42%
2 | COc1cccc(C2(O)CCCCC2CN(C)C)c1 (stereo not shown) [Tramadol, reference compound] | 3.53 ± 0.44 | 4.60 ± 0.59 | 3.48 ± 0.44 | 3.70 ± 0.48 |  |  |  |  |  |  |  |  |  | tail flicking latency ([1]; 10 mg/kg, after 90 min, without Naloxone): 17.74 ± 1.33
3 | O=C1C(=Cc2ccccc2)Oc2ccccc21 [WE-1] |  |  |  |  | 1.27 | 1.27 | 1.45 | 1.45 |  |  |  |  |  | 
4 | O=C1C(=Cc2ccc(Cl)cc2)Oc2ccccc21 [WE-2] | 3.61 ± 0.41 | 4.11 ± 0.40 | 3.19 ± 0.32 | 4.03 ± 0.41 | 0.82 | 0.82 | 0.86 | 0.86 | over 60% | 3.70 ± 0.39 | 4.30 ± 0.51 | 3.80 ± 0.55 | 4.59 ± 0.60 | percent analgesic effect (inhibition of writhing) ([4]; 10 mg/kg oral): 63.44%; percent analgesic effect (inhibition of writhing) ([4]; 20 mg/kg oral): 64.94%
5 | COc1ccc(C=C2Oc3ccccc3C2=O)cc1 [WE-3] | 3.66 ± 0.41 | 4.60 ± 0.49 | 4.01 ± 0.61 | 4.71 ± 0.66 | 0.47 | 0.47 | 0.52 | 0.52 | over 60% | 3.35 ± 0.49 | 4.76 ± 0.51 | 4.15 ± 0.56 | 5.14 ± 0.61 | percentage inhibition of pain, tail immersion ([1]; 20 mg/kg oral, at interval of highest effect): 71.36%
6 | O=C(O)c1ccc(C=C2Oc3ccccc3C2=O)cc1 [WE-5] |  |  |  |  | 1.21 | 1.21 | 1.12 | 1.12 |  |  |  |  |  | 
7 | O=Cc1ccc(C=C2Oc3ccccc3C2=O)cc1 [WE-6] |  |  |  |  | 1.13 | 1.13 | 1.17 | 1.17 |  |  |  |  |  | 
8 | O=C1C(=Cc2ccc(F)cc2)Oc2ccccc21 [WE-7] | 3.48 ± 0.46 | 4.11 ± 0.48 | 3.40 ± 0.60 | 4.11 ± 0.40 | 0.63 | 0.63 | 0.74 | 0.74 | over 60% | 3.50 ± 0.67 | 4.35 ± 0.61 | 3.51 ± 0.66 | 5.01 ± 0.60 | percent analgesic effect (inhibition of writhing) ([4]; 20 mg/kg oral): more than 60%
9 | O=C(O)Cc1ccccc1Nc1c(Cl)cccc1Cl [diclofenac sodium, Diclofenac Sodium, reference compound] |  |  |  |  |  |  |  |  |  |  |  |  |  | percent analgesic effect (inhibition of writhing) ([4]; 10 mg/kg oral): 84.90%; number of writhing ([4]; 10 mg/kg oral, mean ± SEM, control 61.22 ± 3.90): 9.24 ± 1.51
10 | COc1ccc2c(c1)c(CC(=O)O)c(C)n2C(=O)c1ccc(Cl)cc1 [indomethacin, Indomethacin, reference compound] |  |  |  |  |  |  |  |  |  |  |  |  |  | percentage inhibition of paw licking, Phase II ([3]; 10 mg/kg oral): 81.85%
